Values joined by “and” are separate entries in the source; they are usually repeats but may differ in a detail not shown here. Equal values may be shown once.
Experiments:
Brd3(1)* (L070A) = target: T1, Brd3(1)* (L070A) (Homo sapiens, UniProt Q15059, L70A); experiment: DSF thermal shift; format: binding; details: mutant
T1 construct: Plasmids of the eight single BET bromodomain constructs Brd2(1), Brd2(2), Brd3(1), Brd3(2); His6 (N); made in house; host or cells: E. coli BL21(DE3)

Brd2(2)*(Leu383-Ala) = Brd2(2)*(Leu383-Ala) (Homo sapiens, UniProt P25440, L383A); experiment: ITC reverse titration of protein into compound; format: binding; parameters: Plasmids of the eight single BET bromodomain constructs Brd2(1), Brd2(2), Brd3(1), Brd3(2), Brd4(1), Brd4(2), Brdt(1) and Brdt(2); His6 (N); made in house; host or cells: E. coli BL21(DE3); details: for ΔH Brd2(2)* (Leu383-Ala) / Kd: ITC 25° C.; for Kd: Kd Brd2(2)* (Leu383-Ala); for Selectivity factor Kd WT/Kd Leu/Ala: 30° C.
Chain of Brd2(2)*(Leu383-Ala) (P25440 344-453 L383A limits assumed): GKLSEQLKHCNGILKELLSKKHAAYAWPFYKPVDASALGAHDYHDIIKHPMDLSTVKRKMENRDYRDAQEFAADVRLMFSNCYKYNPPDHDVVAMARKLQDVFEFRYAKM
Protocol: (§1) ITC experiments were carried out on a ITC200 instrument from MicroCal™ Experiments were conducted at 3 different temperatures 15° C., 25° C. and 30° C., while stirring at 1000 rpm. Buffers of proteins, peptide and compounds were matched to 20 mM HEPES pH 7.5 at 25° C. and 100 mM NaCl. Frozen protein was buffer exchanged as described for the DSF experiments. Each titration comprised 1 initial injection of 0.4 μl lasting 0.8 s, followed by 19 injections of 2 μl lasting 4 s each at 2 min intervals. The initial injection was discarded during data analysis. Standard and reverse titrations were conducted depending on the binding partners.
(§2) Reverse titrations were conducted to test the binding of the known ligands and the novel chemical probes to the wild types and the mutants. Experiments were carried out either at 25° C. or 30° C. […] In cases where the compound was solubilized in dimethyl sulfoxide, DMSO concentration was adjusted to 1% both in the syringe and in the cell.
(§3) All the data was fitted to a single binding site model using the Microcal LLC ITC200 Origin software provided by the manufacturer to yield enthalpies of binding (ΔH) and binding constants (Kas). Further thermodynamic parameters were calculated from these values (changes in entropy ΔS, changes in free energy AG and dissociation constants (Kds)).

Brd2(1)*(Leu110-Ala) = Brd2(1)*(Leu110-Ala) (Homo sapiens, UniProt P25440, L110A); experiment: ITC reverse titration of protein into compound; format: binding; parameters: Plasmids of the eight single BET bromodomain constructs Brd2(1), Brd2(2), Brd3(1), Brd3(2), Brd4(1), Brd4(2), Brdt(1) and Brdt(2); His6 (N); made in house; host or cells: E. coli BL21(DE3); details: for ΔH Brd2(1)* (Leu110-Ala): ITC 25° C.; for Selectivity factor Kd WT/Kd Leu/Ala: 30° C.
Chain of Brd2(1)*(Leu110-Ala) (P25440 74-180 L110A limits assumed): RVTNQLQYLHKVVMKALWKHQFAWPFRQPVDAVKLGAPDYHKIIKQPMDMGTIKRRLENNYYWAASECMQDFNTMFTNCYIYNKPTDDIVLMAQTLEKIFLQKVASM
Protocol: as §1, §2, §3

brdt(1)L063A = target: T2, brdt(1)L063A (Homo sapiens, UniProt Q58F21, L63A); experiment: DSF thermal shift; format: binding; details: mutant
T2 construct: Plasmids of the eight single BET bromodomain constructs Brd2(1), Brd2(2), Brd3(1), Brd3(2), Brd4(1), Brd4(2), Brdt(1) and Brdt(2); His6 (N); made in house; host or cells: E. coli BL21(DE3)

brd3(2)L344A = target: T3, brd3(2)L344A (Homo sapiens, UniProt Q15059, L345A); experiment: DSF thermal shift; format: binding; details: mutant
T3 construct: Plasmids of the eight single BET bromodomain constructs Brd2(1), Brd2(2), Brd3(1), Brd3(2), Brd4(1), Brd4(2), Brdt(1) and Brdt(2); His6 (N); made in house; host or cells: E. coli BL21(DE3)
T3 sequence (Q15059 306-415 L345A): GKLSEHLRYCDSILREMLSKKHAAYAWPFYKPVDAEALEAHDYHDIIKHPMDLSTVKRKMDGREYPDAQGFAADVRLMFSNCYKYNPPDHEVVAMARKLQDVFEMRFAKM

Brd2(1) = target: T4, Brd2(1) (Homo sapiens, UniProt P25440); experiment: DSF thermal shift; format: binding; details: wild type
T4 construct: Plasmids of the eight single BET bromodomain constructs Brd2(1), Brd2(2), Brd3(1), Brd3(2); His6 (N); made in house; host or cells: E. coli BL21(DE3)
T4 sequence (P25440 74-180 limits assumed): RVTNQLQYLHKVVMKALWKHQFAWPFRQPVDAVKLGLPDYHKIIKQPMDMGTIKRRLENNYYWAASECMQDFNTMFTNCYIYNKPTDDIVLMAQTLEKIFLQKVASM

Brd2(2) = target: T5, Brd2(2) (Homo sapiens, UniProt P25440); experiment: DSF thermal shift; format: binding; details: wild type
T5 construct: Plasmids of the eight single BET bromodomain constructs Brd2(1), Brd2(2), Brd3(1), Brd3(2); His6 (N); made in house; host or cells: E. coli BL21(DE3)
T5 sequence (P25440 344-453 limits assumed): as the sequence (P25440 344-453 L383A limits assumed) above, with A40L counted along it

Brdt(2) = target: T6, Brdt(2) (Homo sapiens, UniProt Q58F21); experiment: DSF thermal shift; format: binding; details: wild type
T6 construct: Plasmids of the eight single BET bromodomain constructs Brd2(1), Brd2(2), Brd3(1), Brd3(2), Brd4(1), Brd4(2), Brdt(1) and Brdt(2); His6 (N); made in house; host or cells: E. coli BL21(DE3)

Brd3(1) = target: T7, Brd3(1) (Homo sapiens, UniProt Q15059); experiment: DSF thermal shift; format: binding; details: wild type
T7 construct: Plasmids of the eight single BET bromodomain constructs Brd2(1), Brd2(2), Brd3(1), Brd3(2); His6 (N); made in house; host or cells: E. coli BL21(DE3)
T7 sequence (Q15059 34-140 limits assumed): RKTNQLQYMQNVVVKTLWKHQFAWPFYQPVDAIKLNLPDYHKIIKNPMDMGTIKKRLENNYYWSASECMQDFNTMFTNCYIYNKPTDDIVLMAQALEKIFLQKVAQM

Brd3(2) = target: T8, Brd3(2) (Homo sapiens, UniProt Q15059); experiment: DSF thermal shift; format: binding; details: wild type
T8 construct: Plasmids of the eight single BET bromodomain constructs Brd2(1), Brd2(2), Brd3(1), Brd3(2), Brd4(1), Brd4(2), Brdt(1) and Brdt(2); His6 (N); made in house; host or cells: E. coli BL21(DE3)
T8 sequence (Q15059 306-415 limits assumed): as the sequence (Q15059 306-415 L345A) above, with A40L counted along it

brdt(2)L306A = target: T9, brdt(2)L306A (Homo sapiens, UniProt Q58F21, L306A); experiment: DSF thermal shift; format: binding; details: mutant
T9 construct: Plasmids of the eight single BET bromodomain constructs Brd2(1), Brd2(2), Brd3(1), Brd3(2), Brd4(1), Brd4(2), Brdt(1) and Brdt(2); His6 (N); made in house; host or cells: E. coli BL21(DE3)

Brdt(1) = target: T10, Brdt(1) (Homo sapiens, UniProt Q58F21); experiment: DSF thermal shift; format: binding; details: wild type
T10 construct: Plasmids of the eight single BET bromodomain constructs Brd2(1), Brd2(2), Brd3(1), Brd3(2), Brd4(1), Brd4(2), Brdt(1) and Brdt(2); His6 (N); made in house; host or cells: E. coli BL21(DE3)

[1] = tested on: Brd2(1) and (2) wild type and leucine to alanine, valine and isoleucine mutants; experiment: DSF thermal stabilization (FIG. 15); format: binding, human; details: result in words
Protocol: DSF assays were performed on a LightCycler®480 from Roche or a Mx3005P Real Time PCR machine from Stratagene. […] SYPRO®Orange from Invitrogen Molecular Probes® was used as a reporter dye to monitor the denaturing process of the proteins. Samples were assayed on a 96-well plate with final protein concentrations of 2 μM for the LightCycler®480 and 6 μM for Mx3005P. Compounds were added at a final concentration of 10 μM for the LightCycler®480 and 30 μM for Mx3005P, while the tetra acetylated histone peptide was added to a final concentration of 100 μM and 300 μM respectively. […] The temperature was raised with a step of 0.6° C. per minute from 37° C. to 95° C. with the LightCycler®480 collecting 39 measurements per ° C., and 1° C. per minute from 25° C. to 95° C. with Mx3005P, collecting fluorescence readings at the end of each interval. Each sample was run in triplicates.
Collected data was analysed by IGOR Pro 6, a scientific software tool from Wave Metrics, Inc. Analysis was done following the recommendations of Niesen et al.. Fluorescence intensity was plotted as a function of temperature, generating a sigmoidal curve described by a two-state transition from folded to unfolded protein. Curves were fitted by the following sigmoidal equation: […]
A1 and A2 are the values of minimum and maximum intensities, respectively, x0 is the inflection point and dx is the rate. Fitted curves were differentiated in IGOR Pro 6 and the maximum of the first derivative was identified using the same program. These values correspond to the inflection points of the transition curves and thus to the melting temperatures of the proteins (Tm).

T1 sequence (Q15059 34-140 L70A limits assumed): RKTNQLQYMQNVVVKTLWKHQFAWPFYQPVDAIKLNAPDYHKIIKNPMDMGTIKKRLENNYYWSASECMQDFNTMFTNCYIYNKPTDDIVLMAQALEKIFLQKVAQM

SMILES	ΔTm Brd3(1)* (L070A) (Brd3(1)* (L070A))	ΔH Brd2(2)* (Leu383-Ala) (Brd2(2)*(Leu383-Ala))	Kd (Brd2(2)*(Leu383-Ala))	Kd (Brd2(1)*(Leu110-Ala))	ΔH Brd2(1)* (Leu110-Ala) (Brd2(1)*(Leu110-Ala))	ΔTm Brdt(1)* (L063A) (brdt(1)L063A)	ΔTm Brd3(2)* (L344A) (brd3(2)L344A)	ΔTm Brd2(1) (Brd2(1))	ΔTm Brd2(2) (Brd2(2))	ΔTm Brdt(2) (Brdt(2))	ΔTm Brd3(1) (Brd3(1))	ΔTm Brd3(2) (Brd3(2))	ΔTm Brdt(2)* (L306A) (brdt(2)L306A)	ΔTm Brdt(1) (Brdt(1))	Thermal stabilization of Brd2 mutants versus wild types (FIG. 15) [1]	other results
COC(=O)[C@H](C)[C@@H]1N=C(c2ccc(Cl)cc2)c2cc(OC)ccc2-n2c(C)nnc21 (racemic) [Compound 7, (+−)-methyl (R)-2-((S)-6-(4-chlorophenyl)-8-methoxy-1-methyl-4H-benzo[f][1,2,4]triazolo[4,3-a][1,4]diazepin-4-yl)propanoate]	10.8 ± 0.3 K	-12.61 ± 0.08606 kcal/mol	22 nM and 22.3 nM	17 nM	−16780 ± 161.4 cal/mol	5.8 ± 0.3 K	15.6 ± 0.4 K	3.2 ± 0.2 K	5.6 ± 0.1 K	3.7 ± 0.3 K	5.9 ± 0.2 K	6.7 ± 1.0 K	7.9 ± 0.2 K	5.3 ± 0.3 K	increased thermal shifts of the leucine to alanine mutants	Thermal stabilisation brd2(1) (Brd2(1)): 3.2 ± 0.2 °C; Thermal stabilisation brd2(1) (Brd2(1); listed as compound 7): 3.2 °C; Thermal stabilisation brd2(2) (Brd2(2)): 5.6 ± 0.1 °C; Thermal stabilisation brd2(2) (Brd2(2); listed as compound 7): 5.6 °C
CC[C@@H](C(=O)OC)[C@@H]1N=C(c2ccc(Cl)cc2)c2cc(OC)ccc2-n2c(C)nnc21 (racemic) [Compound 11, (+−)-methyl (R)-2-((S)-6-(4-chlorophenyl)-8-methoxy-1-methyl-4H-benzo[f][1,2,4]triazolo[4,3-a][1,4]diazepin-4-yl)butanoate]	10.4 ± 0.3 K	-10.71 ± 0.1028 kcal/mol	21.7 ± 5.6 nM	42.7 ± 7.8 nM	−16220 ± 130.9 cal/mol	5.4 ± 0.3 K	13.4 ± 0.6 K	1.2 ± 0.2 K	1.6 ± 0.1 K	1.3 ± 0.3 K	2.2 ± 0.1 K	2.6 ± 0.7 K	6.7 ± 0.4 K	1.5 ± 0.4 K	increased thermal shifts of the leucine to alanine mutants	Selectivity factor Kd WT/Kd Leu/Ala (Brd2(2)*(Leu383-Ala); brd2(2)L383A vs WT brd2(1)): 105; Selectivity factor Kd WT/Kd Leu/Ala (Brd2(2)*(Leu383-Ala); brd2(2)L383A vs WT brd2(2)): 203; Selectivity factor Kd WT/Kd Leu/Ala (Brd2(2)*(Leu383-Ala); brd2(2)L383A vs WT brd3(1)): 82; Selectivity factor Kd WT/Kd Leu/Ala (Brd2(2)*(Leu383-Ala); brd2(2)L383A vs WT brd3(2)): 87; Selectivity factor Kd WT/Kd Leu/Ala (Brd2(2)*(Leu383-Ala); brd2(2)L383A vs WT brd4(1)): 150; Selectivity factor Kd WT/Kd Leu/Ala (Brd2(2)*(Leu383-Ala); brd2(2)L383A vs WT brd4(2)): 118; Selectivity factor Kd WT/Kd Leu/Ala (Brd2(2)*(Leu383-Ala); brd2(2)L383A vs WT brdt(1)): 101; Selectivity factor Kd WT/Kd Leu/Ala (Brd2(2)*(Leu383-Ala); brd2(2)L383A vs WT brdt(2)): 144; Selectivity factor Kd WT/Kd Leu/Ala (Brd2(1)*(Leu110-Ala); brd2(1)L110A vs WT brd2(1)): 123; Selectivity factor Kd WT/Kd Leu/Ala (Brd2(1)*(Leu110-Ala); brd2(1)L110A vs WT brd2(2)): 236; Selectivity factor Kd WT/Kd Leu/Ala (Brd2(1)*(Leu110-Ala); brd2(1)L110A vs WT brd3(1)): 96; Selectivity factor Kd WT/Kd Leu/Ala (Brd2(1)*(Leu110-Ala); brd2(1)L110A vs WT brd3(2)): 101; Selectivity factor Kd WT/Kd Leu/Ala (Brd2(1)*(Leu110-Ala); brd2(1)L110A vs WT brd4(1)): 174; Selectivity factor Kd WT/Kd Leu/Ala (Brd2(1)*(Leu110-Ala); brd2(1)L110A vs WT brd4(2)): 138; Selectivity factor Kd WT/Kd Leu/Ala (Brd2(1)*(Leu110-Ala); brd2(1)L110A vs WT brdt(1)): 117; Selectivity factor Kd WT/Kd Leu/Ala (Brd2(1)*(Leu110-Ala); brd2(1)L110A vs WT brdt(2)): 167; Selectivity against all other bromodomains (Brd2(1)*(Leu110-Ala); mutated Brd2(1) vs all other (wild type) bromodomains): ≥ 96 fold
